Measured values taken from patent publication US20140094461A1, “BIOMARKERS FOR HEDGEHOG INHIBITOR THERAPY” (priority 2011, published 2014).

Assays:
[1] = tested on: basal cell carcinoma (BCC); experiment: Phase I dose escalation trial, adult BCC patients with PTCH or SMO mutations: clinical response; assay type: in vivo, human
From the text: In addition to the Hedgehog-activated medulloblastoma, basal cell carcinoma (BCC) is another cancer type that is mostly driven by mutations or genetic lesions of the Hedgehog pathway genes that lead to constitutive activation of the Hedgehog pathway. […] In an ongoing phase I, dose escalation trial of methyl-4′-trifluoromethoxy-biphenyl-3-carboxylic acid [6-(cis-2,6-dimethyl-morpholin-4-yl)-pyridin-3-yl]-amide, an Hedgehog signaling inhibitor antagonizing SMO, adult BCC patients were enrolled among patients with other solid tumors. Mutational analysis of PTCH1 and SMO by directly sequencing was performed to the archival tumor specimens collected at the time of diagnosis from the enrolled BCC patients. […] The method of the invention was used to determine the Hedgehog activation status of BCC tumors from these patients. With both the 5-gene and 8-gene models, the probability score of all 6 cases were above the pre-specified cut-off and therefore all were called Hedgehog-activated. Among these 6 patients, 2 achieved confirmed partial response on methyl-4′-trifluoromethoxy-biphenyl-3-carboxylic acid [6-(cis-2,6-dimethyl-morpholin-4-yl)-pyridin-3-yl]-amide treatment, 2 had stable disease for more than 6 month, and the other 2 patients discontinued methyl-4′-trifluoromethoxy-biphenyl-3-carboxylic acid [6-(cis-2,6-dimethyl-morpholin-4-yl)-pyridin-3-yl]-amide due to adverse events after less than 2 months of therapy which might be too brief to observe any clinical activities. […] The method of the invention can be used for identifying other types of tumor with the same underlining Hedgehog-mutation driven etiology that might preferentially benefit from a Hedgehog signaling inhibitor therapy.

[2] = tested on: medulloblastoma; experiment: Phase I dose escalation trial, adult medulloblastoma patients: clinical response; assay type: in vivo, human
From the text: Adult cancer patients including patients with medulloblastoma, were enrolled into an ongoing phase I, dose escalation trial of methyl-4′-trifluoromethoxy-biphenyl-3-carboxylic acid [6-(cis-2,6-dimethyl-morpholin-4-yl)-pyridin-3-yl]-amide to evaluate safety and tolerability of methyl-4′-trifluoromethoxy-biphenyl-3-carboxylic acid [6-(cis-2,6-dimethyl-morpholin-4-yl)-pyridin-3-yl]-amide and assess maximally tolerated dose of methyl-4′-trifluoromethoxy-biphenyl-3-carboxylic acid [6-(cis-2,6-dimethyl-morpholin-4-yl)-pyridin-3-yl]-amide for adult patients. Archival FFPE tumor specimens collected prior to the start of the trial are available for analysis by the method of the invention from 3 enrolled medulloblastoma patients in this trial.
Based on the 8-gene and 5-gene predictive model, the method of the invention was used to determine the Hedgehog activation status in tumor for these 3 patients. The two responders were determined to have Hedgehog-activated tumor while the tumor from the non-responder was called non-Hedgehog-activated. In addition, the single genes, SPHK1, OTX2, SFRP1, PDLIM3, or SHROOM2 were each used to determine the Hedgehog activation status based on the pre-established cut-off for each of the genes. By each of the single gene, the same Hedgehog-activated and non-Hedgehog-activated calls were made to the two responders and one non-responder, respectively. Among the 3 patients, only one patient had adequate tumor tissue samples available for additional mutational analysis of the PTCH1 and SMO gene. […] Inactivating PTCH1 mutations have been identified as a major mechanism of constitutively activating Hedgehog pathway in medulloblastoma. Therefore, identification of this PTCH1 mutation provides a mechanistic basis for Hedgehog pathway activation and observed clinical activity against Hedgehog signaling inhibitor in this patient and further validates the finding by the method of the invention.

[3] = medulloblastoma patient 1, daily dose of 200 mg

In the case of Cc1c(C(=O)Nc2ccc(N3C[C@@H](C)O[C@@H](C)C3)nc2)cccc1-c1ccc(OC(F)(F)F)cc1 [methyl-4′-trifluoromethoxy-biphenyl-3-carboxylic acid [6-(cis-2,6-dimethyl-morpholin-4-yl)-pyridin-3-yl]-amide], the “number of patients with stable disease for more than 6 month” value ([1]; of 6 BCC patients with PTCH or SMO mutations) is reported as 2 patients, the “number of patients with confirmed partial response” value ([1]; of 6 BCC patients with PTCH or SMO mutations, all called Hedgehog-activated) is reported as 2 patients and the “number of patients who discontinued due to adverse events” value ([1]; of 6 BCC patients, after less than 2 months of therapy) is reported as 2 patients. For the same compound, the “time of treatment until progression” value ([2]; 3rd medulloblastoma patient, daily dose of 200 mg) was 52 days, the clinical outcome ([2]; 3rd medulloblastoma patient, daily dose of 200 mg, non-Hedgehog-activated tumor) was “progressed rapidly” and the “duration of response before disease progression” value [2, 3] was 4 months. For the same compound, the “time of treatment until partial response” value [2, 3] was 2 months, the “tumor response by the RECIST criteria” value ([2]; medulloblastoma patient 1, daily dose of 200 mg, Hedgehog-activated tumor) was “partial response (PR)” and the “response measured by positron emission tomography (PET)” value ([2]; metastatic medulloblastoma patient without measurable lesion, 1500 mg daily dose, Hedgehog-activated tumor, PTCH1 mutation) was “metabolic partial response”. The “duration of metabolic partial response before disease relapse” value ([2]; metastatic medulloblastoma patient, 1500 mg daily dose) was 7 months.
